Experimental data published in patent US5922891A, “2-substituted 1,8-dihydroxy-9(10H)-anthracenone pharmaceuticals” (priority 1997, dated 1999).
pIC50: −log10 of the molar value. Read-outs that look alike come from different tables or passages of the source.

Key:
[1] = Inhibition of AAPH-induced lipid peroxidation in bovine brain phospholipid liposomes; type: biochemical; details: AAPH-induced; bovine brain phospholipid liposomes; N = 3 or more; read-out: LPO IC50 (inhibition of lipid peroxidation)
Protocol: Phospholipids were prepared essentially as described by Gutteridge, J. M. C., (Anal. Biochem., 82: 76-82 (1977)). Bovine brain tissue was cooled on ice, freed from blood vessels and washed repeatedly with 0.15 M NaCl, pH 7.4. The tissue was cut into pieces and then macerated with an ultra-turrax, passed through a fine-meshed sieve, and extracted four times with four times the volume of acetone. The extraction mixture was filtered by suction to remove the acetone, the residue dried under vacuum, and then repeatedly extracted with petroleum ether (40-60) using twice the volume of the original brain homogenate. The combined extracts were filtered, dried at 45° C., and dissolved in ether (one fifth the original brain volume). The mixture was treated with five times the volume of acetone, and the resulting precipitate was collected by suction-filtration, dried and stored under N2 at -20° C. in the dark. Bovine brain phospholipids were weighed into glass tubes and shaken in a vortex mixer (Heidolph) in the presence of five small glass beads (.phi. 4 mm) for 1 minute. The phospholipids were suspended in 0.15 M NaCl, pH 7.4, to a final concentration of 5 mg/ml. The mixture was purged with N2 for 1 minute and vigorously dispersed in a vortex mixer for 5 minutes. The liposomes were allowed to swell for 1 hour at 4° C., and vesicles with a mean size of 1-10 μm were obtained according to the method of Bangham, et al., (J. Mol. Biol., 13:238-252 (1965). The liposomes were stimulated with the azo initiator 2 2'-azobis (2-amidinopropane) hydrochloride according to the method of Gutteridge, J. M. C., (Anal. Biochem. 82:76-82 (1977)).
The following reagents were added to the glass tubes containing stimulating bovine brain phospholipid piposomes in the order and at the final concentrations listed: 0.3 ml HK2 PO4 --KOH buffer, pH 7.4 (30 mM), 0.29 ml double distilled H2 O, 0.2 ml liposomes (1 mg/ml), 0.2 ml FeCl3.H2 O (0.1 mM), 0.01 ml 2-substituted anthracenone compound of the invention (variable concentrations).
Appropriate blanks and controls using the vehicle (acetone) were conducted. The final reaction volumes were standardized to 1.0 ml. The reaction mixtures were incubated for 1 hour at 37° C. in a shaking water bath. […] of 20% (w/v) BHT, 0.5 ml 25% (w/v) HCl and 0.5 ml of 1% 2-thiobarbituric acid were added and the samples were heated at 100° C. for 15 minutes and then cooled in an ice bath (5 minutes). 2 ml of 1-butanol were added and the mixtures were vigorously shaken in a vortex mixer (Heidolph) for 15 seconds. The organic layer was separated by centrifugation at 3000 rpm (15 minutes) and absorbance at 532 nm was measured against butanol.

HaCaT cells [2] = test: Antiproliferative activity against HaCaT cells (human keratinocyte cell line); type: cell-based; details: 48 h, read-out: AA IC50 (antiproliferative activity)
Protocol: HaCaT cells were grown in Dulbecco's modified Eagle's medium (DMEM, No. 041-11954A, Gibco) supplemented with 10% fetal calf serum, penicillin (100 U/mL), and streptomycin (100 μg/mL) in a humidified incubator containing 8% CO2 at 37° C. Cells (2.5·10^4 /1.1 ml per well) were seeded on 24-well multidishes and grown in DMEM. After 24 hours of growth, the medium was replaced with fresh medium and a test compound (0.1-5 μM) was added from freshly made stock solutions, which were prepared in DMSO and diluted with DMEM. The final concentration of DMSO in the culture medium was 0.2%. Controls were performed using DMSO or medium alone. Forty-eight hours after addition of a test compound to the culture, the medium was removed and each well was rinsed with phosphate-buffered saline (PBS, 100 μL). The cells were then incubated with sterile 0.5% trypsin, 0.2% EDTA in PBS for 20 minutes at 37° C. The detached cells from each well were suspended in DMEM and dispersed as single cells by gentle pipetting through an Eppendorf pipette. Cell growth was determined directly by counting the keratinocytes on a Neubauer counting chamber using phase contrast microscopy. Inhibition of cell proliferation was calculated by a comparison of the mean value of the test compound (N=3) with the control (N=6-8) activity: (1-test compound/control)×100.

[3] = Deoxyribose degradation as a measure of hydroxyl radical formation; type: biochemical; details: 75 μM test compound; controls < 0.1
Protocol: ^c Deoxyribose degradation as a measure of hydroxyl radical formation
Indicated values are μmoles of malondialdehyde per mmole of deoxyribos
released by 75 μM test compound (controls < 0.1).
Degradation of deoxyribose provides a measurement of the amount of hydroxyl radical formation caused by the test compounds. The assay used to determine degradation of 2-deoxy-D-ribose followed generally the procedures of Gutteridge, J. M. C., Biochem. J., 224: 761-767 (1984) and Laughton, et al., Biochem. Pharmacol., 38: 2859-2865 (1989). The following reagents were added to glass tubes in the order and at the final concentrations listed. 0.3 mL kH2 PO4 --KOH buffer, pH 7.4 (30 mM), 0.2 ml double distilled H2 O, 0.2 ml 2-deoxy-D-ribose (2 mM), 0.2 ml FeCl3.6H2 O (0.1 mM), 0.1 ml 2-substituted anthracenone ([…]). Stock solutions of each of the 2-substituted anthracenone compounds were made up fresh before use. Appropriate blanks and controls using an acetronitrile vehicle were performed.
Final reaction volumes were standardized to 1.0 ml. The reaction mixtures were incubated for 2 hours at 37° C. in a shaking water bath at 50 rpm. 1 ml of 2.8% (w/v) trichloracetic acid and 1 ml of 1% (w/v in 0.05 N NaOH) 2-thiobarbituric acid (TBA) were added, and the samples were heated at 100° C. for 15 minutes and then cooled in an ice bath (5 minutes). 2 ml of each reaction mixture was treated with 0.05 ml of 36% (w/v) HCl and 2 of 1-butanol, followed by vigorous shaking with a vortex mixer (Heidolph) for 15 seconds. The organic layer was separated by centrifugation at 3000 rpm (15 minutes) and absorbance at 532 nm was measured against butanol. Calibration was performed using a malondialdehyde (MDA) standard prepared by hydrolysis of 1,1,3,3-tetraethoxypropane (Gutteridge, J. M. C., Anal. Biochem., 69: 518-526 (1975). TBA reactive material was expressed in terms of μmol MDA per μmol deoxyribose. The results of the assay are provided in Table I.

[4] = cited from earlier work
HaCaT cells [5] = details: cited from earlier work
[6] = psoriasis therapy; cited from earlier work
[7] = tested on: LTB4 production in human neutrophils; details: depending on cell density, read-out: IC50, inhibition of LTB4 production, human neutrophils; cited from earlier work
5-LO in bovine PMNL = target: T1, 5-LO in bovine PMNL (Bos taurus, UniProt F1MQ78); test: Inhibition of 5-lipoxygenase (5-HETE and LTB4 biosynthesis) in Ca-ionophore-stimulated bovine PMNL; type: cell-based
T1 construct: The purified PMNLs were suspended at a concentration of; endogenous in cells; host or cells: polymorphonuclear leukocytes isolated from bovine blood
T1 sequence (F1MQ78 1-674): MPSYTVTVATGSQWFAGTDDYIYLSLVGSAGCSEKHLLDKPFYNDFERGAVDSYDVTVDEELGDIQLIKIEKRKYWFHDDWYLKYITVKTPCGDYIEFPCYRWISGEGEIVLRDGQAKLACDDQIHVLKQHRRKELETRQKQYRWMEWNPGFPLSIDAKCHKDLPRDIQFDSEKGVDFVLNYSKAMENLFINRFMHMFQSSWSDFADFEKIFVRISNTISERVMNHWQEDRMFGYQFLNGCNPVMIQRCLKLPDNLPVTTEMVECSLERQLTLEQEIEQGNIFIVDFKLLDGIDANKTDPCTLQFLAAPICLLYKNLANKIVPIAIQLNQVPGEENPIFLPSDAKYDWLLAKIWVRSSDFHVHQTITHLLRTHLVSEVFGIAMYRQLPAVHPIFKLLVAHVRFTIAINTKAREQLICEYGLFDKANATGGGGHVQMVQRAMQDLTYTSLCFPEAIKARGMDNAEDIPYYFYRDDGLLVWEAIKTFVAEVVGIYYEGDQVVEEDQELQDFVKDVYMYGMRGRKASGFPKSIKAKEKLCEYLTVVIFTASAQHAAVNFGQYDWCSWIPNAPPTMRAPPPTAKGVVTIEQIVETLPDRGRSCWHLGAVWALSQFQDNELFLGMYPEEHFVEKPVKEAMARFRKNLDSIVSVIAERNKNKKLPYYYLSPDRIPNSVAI
Protocol: Briefly, PMNLs were prepared from sodium EDTA-anticoagulated bovine blood, essentially as described by Walstra, P. et al., (Biochem. Biophys. Acta, 795:499-503 (1984)). Contaminating platelets were removed by repeated centrifugations at 100 g for 20 minutes. […] Cell counts were conducted with a Sysmex micro cell counter CC-130. Preincubation was performed with 2.4 ml of the suspension and 10 μl of a DMSO stock solution of test compounds at the desired concentrations in phosphate buffered saline (PBS) or vehicle control (DMSO at final concentration of 0.4%) for 15 minutes at 37° C. in a shaking water bath at 50 rpm. […] The incubation mixture was held on ice bath for 20 minutes and then centrifuged at 4000 g for 5 minutes at 0° C. The supernatant was diluted with 5 ml of water and passed through a prewashed (10 ml of methanol and 5 ml of water, sequentially) octadecylsilane reversed phase cartridge (Baker). The eicosanoids were eluted with 3 ml of methanol, diluted with 3 ml of water and subjected to reversed phase HPLC analysis using a 250×4 mm column packed with Nucleosil C18 (7 μm particles; Bischoff, Leonberg, Germany). The isocratic elution conditions of LTB4 were tetrahydrofuran (THF)/methanol/water/acetic acid (25+30+45+0.1), adjusted to pH 5.5 with concentrated NH3, at a flow rate of 0.9 ml/min (Kontron 420 pump), monitored at 280 nm with a Kontron 735 LC UV detector. 5-HETE was monitored at 232 nm using methanol/water/acetic acid (77+23+0.1), pH 5.5 and a flow rate 1.0 ml/min. Data were recorded on a MacLab data acquisition system (WissTech, Germany) and analysis was performed using the application Peaks on an Apple Macintosh Quadra 700 computer. Integrated areas of the peaks were compared to a PGB2 internal standard and to external standards of authentic samples. Molar absorption coefficients of Samuelsson et al., Borgeat, P. and B. Samuelsson, (Proc. Natl. Acad. Sci. USA, 76:2148-2152 (1979)), were used for making calculations. Inhibition was calculated by a comparison of the mean value of test compound (n=3) with control (n=6-8) activity: (1-test compound/control)×100.
See Walstra, P. et al., Biochem Biophys. Acta, 795:499-503 (1984); and Dannhardt et al. J. Pharm. Pharmacol., 44:419-424 (1992). […] (Schroder, J. M., J. Invest. Dermatol., 87:624-629 (1986); Tanzer, et al., Arch. Pharm. (Weinheim), 324:841-846 (1991)).

In the case of `CN(O)C(=O)Cc1ccc2c(c1O)C(=O)c1c(O)cccc1C2` [ID, N-Hydroxy-N-methyl-(9,10-dihydro-1,8-dihydroxy-9-oxo-2-anthracene)acetamide], the pIC50 [1] was 4.54, the pIC50 (HaCaT cells [2]) was 6.10 and the “DD (deoxyribose degradation, malondialdehyde released)” value (from here on “DD”) [3] was 1.67 ± 0.08 μmol of MDA/mmol.

In the case of `O=C(O)CCCCc1ccc2c(c1O)C(=O)c1c(O)cccc1C2` [IVA, 5-(9,10-Dihydro-1,8-dihydroxy-9-oxo-2-anthracene) pentanoic acid], the pIC50 [1] was 3.98, the pIC50 (HaCaT cells [2]) was < 5.30 and the “DD” value [3] was 2.62 ± 0.41 μmol of MDA/mmol.

For `O=C(CCCCc1ccc2c(c1O)C(=O)c1c(O)cccc1C2)NO` [IVC, N-Hydroxy-5-(9,10-dihydro-1,8-dihydroxy-9-oxo-2-anthracene)pentanamide], the pIC50 [1] was 4.21, the pIC50 (HaCaT cells [2]) was 5.70 and the “DD” value [3] was 1.38 ± 0.09 μmol of MDA/mmol.

With `CC(C)C(C(=O)O)c1ccc2c(c1O)C(=O)c1c(O)cccc1C2` (stereo not shown) [VIIIA, 2-(9,10-Dihydro-1,8-dihydroxy-9-oxo-2-anthracene)-3-methylbutanoic acid] the pIC50 [1] was 3.81, the pIC50 (HaCaT cells [2]) was < 5.30 and the “DD” value [3] was 3.58 ± 0.30 μmol of MDA/mmol.

With `CC(C)C(C(=O)N(C)O)c1ccc2c(c1O)C(=O)c1c(O)cccc1C2` (stereo not shown) [VIIID, N-Hydroxy-N-methyl-2-(9,10-dihydro-1,8-dihydroxy-9-oxo-2-anthracene)-3-methylbutanamide] the pIC50 [1] was 4.90, the pIC50 (HaCaT cells [2]) was 5.82 and the “DD” value [3] was 0.86 ± 0.01 μmol of MDA/mmol.

With `O=C1c2c(O)cccc2Cc2ccc(C(CCc3ccccc3)C(=O)O)c(O)c21` (stereo not shown) [XA, 2-(9,10-Dihydro-1,8-dihydroxy-9-oxo-2-anthracene)-4-phenylbutanoic acid] the pIC50 [1] was 4.21, the pIC50 (HaCaT cells [2]) was < 5.30 and the “DD” value [3] was 2.47 ± 0.16 μmol of MDA/mmol.

For `O=C1c2c(O)cccc2Cc2cccc(O)c21` [anthralin], the “lipid peroxidation in the presence of iron” value [4] is given as “enhancement of anthralin-induced lipid peroxidation in the presence of iron”, the “sensitivity of HaCaT cells to antiproliferative action” value (HaCaT cells [5]) is given as “extremely sensitive target for the antiproliferative action of anthralin” and the “side effects of anthralin therapy” value [6] is given as “increased inflammation and irritation of non-effected skin surrounding treated lesions”. The pIC50 [7] was 4.13 to 5.15, the pIC50 (HaCaT cells [2]) was 6.15 to 6.30 and the “DD” value [3] was 2.89 ± 0.14 μmol of MDA/mmol.

In the case of `CCCCOc1ccc(CC(=O)NO)cc1` [bufexamac, reference compound], the pIC50 (5-LO in bovine PMNL; N = 3 or more) was < 4.52, the pIC50 (5-LO in bovine PMNL; comparison with compounds of the invention, read-out: IC50) was < 4.52 and the pIC50 [1] was < 3.70. The pIC50 (HaCaT cells [2]) was < 5.30.
